Values after ≈ are worked out from the molar mass of the structure shown.
Columns and labels:
Type in all cases: cell-based
[1] = test system: E. coli NB27273-CDY0026 (parent); experiment: MIC by broth microdilution, isogenic E. coli parent strain; conditions: Escherichia coli, read-out: Strain 1 MIC
Experimental: (§1) Bacterial isolates were cultivated from −70° C. frozen stocks by two consecutive overnight passages at 35° C. in ambient air on 5% blood agar (Remel, Lenexa, Kans.). Quality control and P. aeruginosa ATCC 27853) is from the American Type Culture Collection (ATCC; Rockville, Md.) and PAO1 was received from Dr. K. Poole.
(§2) Strain NB27273 (BW25113 pspB::Km^r) was obtained from the Keio transposon insertion collection. The strain has the pspB gene replaced by a kanamycin resistance marker (BW25113 pspB::Km^r). This strain was cured of the transposon in pspB via FLP recombinase using published methodology. The resulting strain, BW25113 pspB, was used as a host for multicopy vectors expressing key β-lactamases. Multicopy plasmids directing constitutive expression of β-lactamases were established as follows: Synthetic, codon optimized genes encoding E. coli KPC2 and SHV12 β-lactamases were made by DNA2.0 (Palo Alto, Calif.). Each of the synthetic fragments were designed to contain NotI and NcoI restriction sites at their termini, allowing ligation into a NotI/NcoI digested pET28a(+) derivative for protein expression. […] The codon optimized nucleotide sequences and relevant primer recognition information is shown below:
(§3) The PCR products were then digested with XhoI and EcoRI and ligated into similarly digested plasmid pAH63-pstS(BlaP). Plasmid pAH63-pstS(BlaP) is a derivative of plasmid pAH63 (J Bacteriol: 183(21): 6384-6393) made by cloning the TEM-1 (bla) promoter and signal peptide encoding region from plasmid pBAD (J Bacteriol. 1995 July 177(14):4121-30) into plasmid pAH63. This fragment was PCR amplified from pBAD using primer pair E192 (ttcaCTGCAGtgaacgttgcgaagcaacggC) (SEQ ID NO:13) and E194 (TCGAggatcctcgagagcaaaaacaggaaggcaaaatgccg) (SEQ ID NO:14), digested with PstI and BamHI and inserted into similarly digested plasmid pAH63. Therefore, expression of β-lactamases from pAH63-pstS(BlaP) based constructs is constitutive and the signal sequence is provided to direct these proteins to the periplasm. […] To accomplish this, the inserts encompassing the β-lactamase genes, with the associated TEM promoter and signal sequences, were PCR amplified from their corresponding vectors using primer E269 (ccgTCTAGAcggatggcctttttgcgtttc) (SEQ ID NO:15) and E202 (aatcGAATTCttactgaccattaacgcccaagc) (SEQ ID NO:16) for the KPC2 construct and E204 (aatcGAATTCttaacgctgccagtgctcaatc) (SEQ ID NO:17) for the SHV12 construct. These fragments were then digested with XbaI and EcoRI, and each was inserted into pBAD18-kan that had been digested with the same enzymes to generate a pair of multicopy vectors expressing KPC2 and SHV12 respectively. These vectors were transformed into BW25113 pspB to generate strains NB27273-CDY0033 (expressing KPC2) and NB27273-CDY0030 (expressing SHV12). The pBAD18-kan vector also contains the TEM promoter region and signal sequence, (but lacks any intact β-lactamase genes) and was transformed into BW25113 pspB using standard protocols to generate the control strain NB27273-CDY0026. […] Susceptibility Testing
(§4) Minimal Inhibitory Concentrations (MICs) were determined by the broth microdilution method in accordance with Clinical and Laboratories Institute (CLSI) guidelines. In brief, fresh overnight bacterial cultures were suspended in sterile saline, and adjusted to a 0.5 McFarland turbidity standard. Bacterial suspensions were then diluted in cation adjusted Mueller-Hinton Broth (MHB II; BBL) to yield a final inoculum of approximately 5×10^5 colony-forming units (CFU)/mL. A master plate of antibiotics was prepared at a concentration equivalent to hundred-fold the highest desired final concentration in 100% dimethyl sulfoxide (DMSO). The master antibiotic plate was then diluted by serial twofold dilution with a multichannel pipette. The resulting dilution series of compounds were diluted 1:10 with sterile water leading to a 10% DMSO final concentration.

[2] = test system: E. coli NB27273-CDY0033 (KPC2); experiment: MIC by broth microdilution, isogenic E. coli strain expressing KPC2; conditions: Escherichia coli, read-out: Strain 2 MIC
Experimental: as §1, §2, §3, §4

[3] = test system: E. coli NB27273-CDY0030 (SHV12); experiment: MIC by broth microdilution, isogenic E. coli strain expressing SHV12; conditions: Escherichia coli, read-out: Strain 3 MIC
Experimental: as §1, §2, §3, §4

[4] = test system: E. coli strain 25922; experiment: MIC by broth microdilution, E. coli strain 25922; conditions: Escherichia coli, 25922, E. coli strain 25922; read-out: Ec 25922 (MIC)
Method in brief: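 CLSI broth microdilution in cation-adjusted Mueller-Hinton broth, inoculum about 5×10^5 CFU/mL, 10% DMSO from the diluted series, 20 h at 35-37° C. MIC is the lowest concentration preventing visible growth, read by eye and at 600 nm.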

[5] = test system: E. coli containing KPC-2; experiment: MIC by broth microdilution, E. coli containing KPC-2 (Ec KPC2 Iso); conditions: Escherichia coli, read-out: Ec KPC2 Iso (MIC), E. coli containing KPC-2 (carbapenemase from Klebsiella pneumoniae)
Method in brief: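 Host E. coli BW25113 pspB carrying multicopy pBAD18-kan plasmid with constitutive TEM-promoter KPC-2 expression (periplasmic signal sequence); broth microdilution per CLSI in cation-adjusted Mueller-Hinton broth, inoculum ~5×10^5 CFU/mL, compounds twofold serially diluted from DMSO masters (10% DMSO in dilution series added).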

SMILES	MIC [1] [µg/mL]	MIC [2] [µg/mL]	MIC [3] [µg/mL]	MIC [4] [µg/mL]	MIC [5] [µg/mL]
Nc1nc(/C(=N/OC2(C(=O)O)CC2)C(=O)N[C@@H]2C(=O)N(S(=O)(=O)O)[C@@H]2CN2CCOC2=O)cs1 [Example 22, 1-(((Z)-(1-(2-aminothiazol-4-yl)-2-oxo-2-(((3S,4R)-2-oxo-4-((2-oxooxazolidin-3-yl)methyl)-1-sulfoazetidin-3-yl)amino)ethylidene)amino)oxy)cyclopropanecarboxylic acid]	≤ 0.06	0.125 (≈ 0.241 µM)	0.5 (≈ 0.964 µM)	0.25 (≈ 0.482 µM)	0.125 (≈ 0.241 µM)
N=C(NC1CCNCC1)c1ccc(OC[C@H](O/N=C(\C(=O)N[C@@H]2C(=O)N(S(=O)(=O)O)[C@@H]2Cn2cncn2)c2csc(N)n2)C(=O)O)cc1 [Example 31, (S)-2-(((Z)-(2-(((2R,3S)-2-((1H-1,2,4-triazol-1-yl)methyl)-4-oxo-1-sulfoazetidin-3-yl)amino)-1-(2-aminothiazol-4-yl)-2-oxoethylidene)amino)oxy)-3-(4-(N-(piperidin-4-yl)carbamimidoyl)-phenoxy)propanoic acid]	0.125 (≈ 0.177 µM)	0.25 (≈ 0.354 µM)	0.5 (≈ 0.708 µM)	0.25 (≈ 0.354 µM)	0.25 (≈ 0.354 µM)
CC(C)(O/N=C(\C(=O)N[C@@H]1C(=O)N(S(=O)(=O)O)[C@@H]1CN1CCCC1=O)c1csc(N)n1)C(=O)O [Example 1, 2-(((Z)-(1-(2-aminothiazol-4-yl)-2-oxo-2-(((3S,4R)-2-oxo-4-((2-oxopyrrolidin-1-yl)methyl)-1-sulfoazetidin-3-yl)amino)ethylidene)amino)oxy)-2-methylpropanoic acid]	1 (≈ 1.93 µM)	2 (≈ 3.86 µM)	2 (≈ 3.86 µM)	16 (≈ 30.9 µM)	2 (≈ 3.86 µM)
CC1(C)[C@H](NC(=O)/C(=N\OCc2cc(=O)c(O)cn2O)c2csc(N)n2)C(=O)N1OS(=O)(=O)O [compound 3, reference compound]	0.25 (≈ 0.482 µM)	0.5 (≈ 0.964 µM)	> 32	–	–
CC1(C)[C@H](NC(=O)/C(=N\O[C@@H](COc2ccc(C(=N)NC3CCNCC3)cc2)C(=O)O)c2csc(N)n2)C(=O)N1OS(=O)(=O)O [compound 4, reference compound]	≤ 0.06	0.25 (≈ 0.374 µM)	32 (≈ 47.9 µM)	–	–
CC(C)(O/N=C(\C(=O)N[C@@H]1C(=O)N(S(=O)(=O)O)[C@@H]1Cn1nnc(CN)n1)c1csc(N)n1)C(=O)O [Example 4, 2-(((Z)-(2-(((2R,3S)-2-((5-(aminomethyl)-2H-tetrazol-2-yl)methyl)-4-oxo-1-sulfoazetidin-3-yl)amino)-1-(2-aminothiazol-4-yl)-2-oxoethylidene)amino)oxy)-2-methylpropanoic acid]	0.5 (≈ 0.939 µM)	8 (≈ 15 µM)	2 (≈ 3.76 µM)	1 (≈ 1.88 µM)	8 (≈ 15 µM)
NC(=O)OC[C@@H]1[C@H](NC(=O)/C(=N\OCC(=O)O)c2csc(N)n2)C(=O)N1S(=O)(=O)O [compound 2, reference compound]	0.125 (≈ 0.268 µM)	1 (≈ 2.14 µM)	> 32	–	–
N=C(N)NCc1cn(C[C@@H]2[C@H](NC(=O)/C(=N\OC3(C(=O)O)CC3)c3csc(N)n3)C(=O)N2S(=O)(=O)O)nn1 [Example 28, 1-(((Z)-(1-(2-aminothiazol-4-yl)-2-(((2R,3S)-2-((4-(guanidinomethyl)-1H-1,2,3-triazol-1-yl)methyl)-4-oxo-1-sulfoazetidin-3-yl)amino)-2-oxoethylidene)amino)oxy)-cyclopropanecarboxylic acid]	≤ 0.06	≤ 0.06	0.5 (≈ 0.875 µM)	–	–

Source: patent US10369138B2, “Monobactam organic compounds for the treatment of bacterial infections” (Novartis AG, priority 2014, dated 2019)
